Source: patent US9012431B2, “Boron-containing small molecules as anti-inflammatory agents” (Anacor Pharmaceuticals, Inc., priority 2008, dated 2015)

How the values were obtained:
TNF-α = assay: Cytokine assay, TNF-α release from PBMC; assay type: cell-based; conditions: Homo sapiens, PBMC, 24 h, 1 μg/mL LPS, supernatant at 24 hours
Procedure, shortened: (§1)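 Human PBMC (frozen, thawed), RPMI 1640 + 10% FBS; compound at 10, 1, 0.1, 0.01 μM from 10 mM DMSO stock, n=3; cytokine release read.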

IL-2 = assay: Cytokine assay, IL-2 release from PBMC; assay type: cell-based; conditions: human PBMC, 20 ug/mL PHA, supernatant at 24 hours
Procedure, shortened: as §1

IFN-γ = assay: Cytokine assay, IFN-γ release from PBMC; assay type: cell-based; conditions: human PBMC, 20 ug/mL PHA, supernatant at 24 hours
Procedure, shortened: as §1

[1] = tested on: T1, PDE4 partially purified from human U-937 myeloid leukemia cells; assay: PDE4 Assay (enzyme from U-937 cells, [3H]cAMP); assay type: biochemical; conditions: PDE4 from U-937 cells, Tris buffer pH 7.5, 20 minutes at 25° C.
T1 construct: PDE4 partially purified from human U-937 myeloid leukemia cells was used

IL-5 = assay: Cytokine assay, IL-5 release from PBMC; assay type: cell-based; conditions: human PBMC, 20 ug/mL PHA, supernatant at 48 hours
Procedure, shortened: as §1

IL-10 = assay: Cytokine assay, IL-10 release from PBMC; assay type: cell-based; conditions: human PBMC, 20 ug/mL PHA, supernatant at 48 hours
Procedure, shortened: as §1

[2] = tested on: CD-1 (Crl.) derived male mice; assay: Phorbol Ester Induced Mouse Ear Edema Model; assay type: in vivo; conditions: topical, 6 h; for inhibition in vivo at 0.2 mg: 0.2 mg/ear × 2 topical; for inhibition in vivo at 1 mg: 1 mg/ear × 2 topical; for inhibition in vivo at 3 mg: 3 mg/ear × 2 topical; for inhibition in vivo at 0.02 mg: 0.02 mg/ear × 2 topical; for inhibition in vivo at 0.067 mg: 0.067 mg/ear × 2 topical
Description: 1. In Vivo Anti-Inflammation Activity in Phorbol Ester Induced Mouse Ear Edema Model
[…] Dexamethasone (1 mg/ear×2) used as the positive control was administered topically to test animals using the same application schedule. Ear swelling was then measured by a Dyer model micrometer gauge at 6 hours after PMA application as an index of inflammation. Percent inhibition was calculated according to the formula: [(Ic−It)/Ic]×100%, where Ic and It refer to increase of ear thickness (mm) in control and treated mice, respectively.

BALB/c male mice = assay: Oxazolone Induced Mouse Ear Edema Model; assay type: in vivo; conditions: for inhibition in vivo at 1 mg: 1 mg/ear × 2 topical; for inhibition in vivo at 0.2 mg: 0.2 mg/ear × 2 topical
Description: 2. In Vivo Anti-Inflammation Activity in Oxazolone Induced Mouse Ear Edema Model
Groups of 5 BALB/c male mice weighing 23±2 g were used. The preshaved abdomens of test animals were sensitized by application of 100 μl, of 1.5% oxazolone solution dissolved in acetone. Seven days after the initial sensitization, test substances, as well as vehicle (acetone:ethanol/1:1, 20 μL/ear) were each administered topically to the anterior and posterior surfaces of the right ear 30 minutes before, and 15 minutes after, challenge by a second application of oxazolone (1% in acetone, […]) via topical route. As a positive control, indomethacin (0.3 mg/ear×2) was administered topically using the same treatment regime as for the test compounds. Twenty-four hours after the second application of oxazolone, the ear thickness of each mouse was measured with a Dyer model micrometer gauge. A 30 percent or more inhibition in ear swelling relative to the vehicle control was considered significant and indicated possible anti-inflammatory activity.

[3] = Acetone:Ethanol/1:1, ear swelling 6 hours after PMA
[4] = 95% Ethanol, ear swelling 6 hours after PMA
[5] = Acetone:Ethanol/1:1, ear thickness 24 hours after second oxazolone application
[6] = […] × 2 topical, 95% Ethanol, ear swelling 6 hours after PMA

Row | SMILES | IC50 (TNF-α) [nM] | IC50 (IL-2) [nM] | IC50 (IFN-γ) [nM] | IC50 [1] [nM] | IC50 (IL-5) [nM] | IC50 (IL-10) [nM] | inhibition in vivo at 1 mg [2, 3] [%] | inhibition in vivo at 1 mg (BALB/c male mice; [5]) [%] | also measured
1 | CCOC(=O)c1nc(Oc2ccc3c(c2)COB3O)ccc1C#N [D45, 3-Cyano-6-(1-hydroxy-1,3-dihydro-benzo[c][1,2]oxaborol-5-yloxy)-pyridine-2-carboxylic acid ethyl ester] | < 1000 | < 1000 | < 1000 | < 1000 |  |  |  |  | melting point: 204 to 206 °C
2 | COc1nc(Oc2ccc3c(c2)COB3O)ccc1C#N [D46, 6-(1-hydroxy-1,3-dihydrobenzo[c][1,2]oxaborol-5-yloxy)-2-methoxynicotinonitrile] | < 1000 | < 1000 | < 1000 | < 1000 | < 1000 | < 1000 | 60 to 90 | < 20 | inhibition in vivo at 0.05 mg ([2]; 0.05 mg/ear × 2 topical, 95% Ethanol, ear swelling 6 hours after PMA): < 30%; inhibition in vivo at 0.1 mg ([2]; 0.1 mg/ear × 2 topical, Acetone:Ethanol/1:1, ear swelling 6 hours after PMA): < 30%; inhibition in vivo at 0.17 mg ([2]; 0.17 mg/ear × 2 topical, 95% Ethanol, ear swelling 6 hours after PMA): < 30%; inhibition in vivo at 0.2 mg [2, 3]: < 30%; inhibition in vivo at 0.5 mg ([2]; 0.5 mg/ear × 2 topical, 95% Ethanol, ear swelling 6 hours after PMA): < 30%; inhibition in vivo at 3 mg [2, 4]: 60 to 90%
3 | N#Cc1ccc(Oc2ccc3c(c2)COB3O)nc1N1CCCC1 [D97, 6-(1-Hydroxy-1,3-dihydro-benzo[c][1,2]oxaborol-5-yloxy)-2-pyrrolidin-1-yl-nicotinonitrile] | < 1000 | < 1000 | < 1000 | < 1000 | < 1000 | < 1000 |  |  | inhibition in vivo at 0.19 mg ([2]; 0.19 mg/ear × 2 topical, 95% Ethanol, ear swelling 6 hours after PMA): < 30%; inhibition in vivo at 0.056 mg [2, 6]: < 30%; inhibition in vivo at 0.56 mg [2, 6]: 30 to 60%; inhibition in vivo at 0.56 mg (BALB/c male mice; 0.56 mg/ear × 2 topical, 95% Ethanol, ear thickness 24 hours after second oxazolone application): < 20%
4 | COc1cc(Oc2ccc3c(c2)COB3O)ccc1C(=O)O [D36, 4-(1-Hydroxy-1,3-dihydro-benzo[c][1,2]oxaborol-5-yloxy)-2-methoxy-benzoic acid] | > 10000 | > 10000 | > 10000 |  |  |  |  |  | melting point: 109.6 to 110.1 °C
5 | CCOc1cc(Oc2ccc3c(c2)COB3O)ccc1C#N [D124, 2-Ethoxy-4-(1-hydroxy-1,3-dihydrobenzo[c][1,2]oxaborol-5-yloxy)benzonitrile] | < 1000 | < 1000 | < 1000 | < 1000 | < 1000 | < 1000 |  | < 20 | inhibition in vivo at 1 mg [2, 4]: < 30%
6 | N#Cc1ccc(Oc2ccc3c(c2)COB3O)nc1N1CCOCC1 [D102, 6-(1-Hydroxy-1,3-dihydro-benzo[c][1,2]oxaborol-5-yloxy)-2-morpholin-4-yl-nicotinonitrile] | < 1000 | < 1000 | < 1000 | < 1000 | < 1000 | 1000 to 4000 |  | < 20 | inhibition in vivo at 0.02 mg [2, 4]: < 30%; inhibition in vivo at 0.067 mg [2, 4]: < 30%; inhibition in vivo at 1 mg [2, 4]: 30 to 60%; inhibition in vivo at 3 mg [2, 4]: 30 to 60%
7 | N#Cc1ccc(Oc2ccc(B(O)O)cc2)cc1 |  |  |  |  |  |  |  |  | melting point: 194 to 198 °C
8 | N#Cc1ccc(Oc2ccc3c(c2)COB3O)nc1OCCO [D99, 6-(1-Hydroxy-1,3-dihydro-benzo[c][1,2]oxaborol-5-yloxy)-2-(2-hydroxy-ethoxy)-nicotinonitrile] | < 1000 | < 1000 | < 1000 | < 1000 | < 1000 | < 1000 |  | < 20 | inhibition in vivo at 0.02 mg [2, 4]: < 30%; inhibition in vivo at 0.067 mg [2, 4]: < 30%; inhibition in vivo at 0.2 mg [2, 4]: < 30%; inhibition in vivo at 3 mg [2, 4]: 60 to 90%; inhibition in vivo at 0.02 mg (BALB/c male mice; 0.02 mg/ear × 2 topical, 95% Ethanol, ear thickness 24 hours after second oxazolone application): < 20%
9 | CCOc1nc(Oc2ccc3c(c2)COB3O)ccc1C#N [D107, 2-Ethoxy-6-(1-hydroxy-1,3-dihydro-benzo[c][1,2]oxaborol-5-yloxy)-nicotinonitrile] | < 1000 | < 1000 | < 1000 | < 1000 | < 1000 | < 1000 |  |  | inhibition in vivo at 0.02 mg [2, 4]: < 30%; inhibition in vivo at 0.06 mg ([2]; 0.06 mg/ear × 2 topical, 95% Ethanol, ear swelling 6 hours after PMA): < 30%; inhibition in vivo at 0.067 mg [2, 4]: 30 to 60%; inhibition in vivo at 0.2 mg [2, 4]: 60 to 90%; inhibition in vivo at 0.24 mg ([2]; 0.24 mg/ear × 2 topical, 95% Ethanol, ear swelling 6 hours after PMA): 30 to 60%; inhibition in vivo at 0.8 mg ([2]; 0.8 mg/ear × 2 topical, 95% Ethanol, ear swelling 6 hours after PMA): 60 to 90%; inhibition in vivo at 2.4 mg ([2]; 2.4 mg/ear × 2 topical, 95% Ethanol, ear swelling 6 hours after PMA): 60 to 90%; inhibition in vivo at 2.4 mg (BALB/c male mice; 2.4 mg/ear × 2 topical, 95% Ethanol, ear thickness 24 hours after second oxazolone application): < 20%
10 | N#Cc1ccc(Oc2ccc3c(c2)COB3O)cc1OC1CCCC1 [D37, 2-Cyclopentyloxy-4-(1-hydroxy-1,3-dihydro-benzo[c][1,2]oxaborol-5-yloxy)-benzonitrile] | < 1000 | < 1000 | < 1000 | < 1000 | < 1000 | < 1000 | 60 to 90 | < 20 | inhibition in vivo at 3 mg [2, 4]: 60 to 90%
11 | COC(=O)c1cc(Oc2ccc3c(c2)COB3O)ccc1C(N)=O [D7, 5-(4-Carbamoyl-3-methoxycarbonylphenoxy)-1,3-dihydro-1-hydroxy-2,1-benzoxaborole] | < 1000 | < 1000 | < 1000 | < 1000 | < 1000 | < 1000 |  |  | inhibition in vivo at 1 mg/kg ([2]; 1 mg/kg × 2 topical, Acetone:Ethanol/1:1, ear swelling 6 hours after PMA): < 30%; inhibition in vivo at 1 mg/kg (BALB/c male mice; 1 mg/kg × 2 topical, Acetone:Ethanol/1:1, ear thickness 24 hours after second oxazolone application): < 20%
12 | CCCCOC(=O)c1ccc(Oc2ccc3c(c2)COB3O)nc1 [D68, n-Butyl 6-(1-hydroxy-1,3-dihydrobenzo[c][1,2]oxaborol-5-yloxy)nicotinate] | < 1000 | < 1000 | 4000 to 10000 | < 1000 | 1000 to 4000 | 1000 to 4000 | 30 to 60 | < 20 | 
13 | COc1cc(Oc2ccc3c(c2)COB3O)ccc1C#N [D12, 5-(4-Cyano-3-methoxyphenoxy)-1,3-dihydro-1-hydroxy-2,1-benzoxaborole] | < 1000 | < 1000 | < 1000 | < 1000 | 1000 to 4000 | < 1000 | 30 to 60 | 30 to 40 | inhibition in vivo at 0.2 mg [2, 3]: < 30%; inhibition in vivo at 0.2 mg (BALB/c male mice; [5]): < 20%
14 | COC(=O)c1cc(Oc2ccc3c(c2)COB3O)ccc1C#N [D6, 5-(4-Cyano-3-methoxycarbonylphenoxy)-1,3-dihydro-1-hydroxy-2,1-benzoxaborole] | < 1000 | < 1000 | < 1000 | < 1000 | 4000 to 10000 | 4000 to 10000 | 30 to 60 | < 20 | inhibition in vivo at 0.2 mg [2, 3]: < 30%; inhibition in vivo at 0.2 mg (BALB/c male mice; [5]): < 20%
15 | CC(C)OC(=O)c1ccc(Oc2ccc3c(c2)COB3O)nc1 [D67, Isopropyl 6-(1-hydroxy-1,3-dihydrobenzo[c][1,2]oxaborol-5-yloxy)nicotinate] | < 1000 | < 1000 | < 1000 | < 1000 | < 1000 | < 1000 | 60 to 90 | < 20 | 
16 | N#Cc1ccc(Oc2ccc3c(c2)COB3O)cc1C(F)(F)F [D5, 5-(4-Cyano-3-trifluoromethylphenoxy)-1,3-dihydro-1-hydroxy-2,1-benzoxaborole] | < 1000 | 1000 to 4000 | < 1000 | < 1000 | < 1000 | > 10000 | 30 to 60 | 30 to 40 | 
